Laboratory results: patent US6500405B1, “Use of certain amides as probes for detection of antitubulin activity and resistance monitoring” (Dow AgroSciences LLC, priority 1996, dated 2002)

Key:
tubulin = test: Binding of S versus R enantiomers to tubulin; conditions: S enantiomer versus corresponding R enantiomer
[1] = tested on: tubulin in colon cancer cell line HCT-116; test: Whole cell binding assay, tritiated S-enantiomer of compound 2 as probe, colon cancer cell line HCT-116; conditions: for Binding of radioligand (% control): HCT-116, 1 hour preincubation, 1 hour with radioligand; for Effect on binding of the radioligand (in words): HCT-116, tritiated S-enantiomer of compound 2
Method: Effect of antitubulin compounds on binding of the tritiated S-enantiomer of compound 2 to tubulin in a whole cell binding assay using the colon cancer cell line HCT-116 is shown by this example.
The colon cancer cell line HCT-116 (obtained from the American Type Culture Collection) was cultured in 75 cm^2 flasks containing McCoy's 5a Modified Medium with 10% heat-inactivated fetal bovine serum, 50 U/ml of penicillin G and 50 U/ml of streptomycin sulfate. A cell suspension was prepared by trypsinization of the culture, and adjusted to a density of 10^6 cells/ml by dilution into incomplete medium (medium lacking serum, penicillin G and streptomycin). Aliquots (150 μl) of cell suspension were added to wells of 96-well glass fiber filter plates (Millipore Multiscreen® plates, 1 μm glass fiber, Type B). Wells then received 30 μl of a solution of the test antitubulin compound in incomplete medium/DMSO mixture (8.5:1, v/v) or 30 μl of the incomplete medium/DMSO mixture alone (control). After mixing, the plates were incubated at 37° C. for 1 hour, then 25 μl of 0.8 μM tritium-labeled S-enantiomer of compound 2 was added to each well. After mixing, the plates were incubated at 37° C. for 1 hour, then binding of the radioligand to tubulin was stopped by adding 50 μl of 100 μM unlabeled compound 2. The fluid was removed from the plate by vacuum filtration through the glass fiber, then 100 μl of ice-cold 10% trichloroacetic acid was added to each well. The plates were incubated for 1 h at 4° C., then the fluid was removed by filtration. Ice-cold ethanol (250 μl) was added to each well, the plates incubated for 1 h at 4° C., then the ethanol was removed by filtration. Wells were washed 4 more times with 250 μl of ice-cold ethanol. After drying the plates at 37° C. for 20 min, the glass fiber filters were punched out of the wells into scintillation vials, 5 ml of scintillation fluid was added to each vial, and the samples were counted in a scintillation counter to determine the amount of bound radioactivity. The effects of different antitubulin compounds on binding of the radioligand are presented in Table 11 with the amounts of radioligand bound in the presence of each antitubulin compound expressed as a percentage of the amount of radioligand bound in the control.

isolated bovine tubulin = test: Binding assay, tritiated compound 1 as probe, isolated bovine tubulin; conditions: 100 μM final concentration; 10 μM tubulin; 30 minutes preincubation, 120 minutes with tritiated compound 1 at 37° C.
Method: Assay mixtures contained 10 μM isolated tubulin in 1.0 M sodium glutamate, pH 6.6 containing 1 mM MgCl2, and 2.5 μDMSO (control) or 2.5 μl of test compound dissolved in DMSO in 0.5 ml polypropylene tubes. Mixtures were incubated at 37° C. for 30 minutes, then 2.5 μl of a 640 μM solution of tritium-labeled compound 1 in DMSO was added. After further incubation at 37° C. for 120 minutes, aliquots (80 μl) of the assay mixtures were applied to 2.3 cm diameter Whatman 3MM filter paper disks, which were dried for 15 seconds under warm air, immersed in 3 ml of ice-cold 10% trichloroacetic acid, and left overnight at 4° C. Disks were transferred to 5% trichloroacetic acid for 30 minutes, washed twice more in 5% trichloroacetic acid, washed for 30 minutes at 37° C. in ethanol/ether (1:1, v/v), then for 15 min at room temperature in ethanol/ether (1:1, v/v), and finally in two successive washes for 15 minutes each in ether at room temperature. The disks were dried, transferred to scintillation vials containing 10 ml of Hydrofluor™ and counted in a scintillation counter.

brain tubulin = conditions: cited from earlier work
plant tubulin = conditions: cited from earlier work

Compound | melting point [°C] | Binding of the S enantiomer to tubulin compared with the R enantiomer (tubulin) | Binding of radioligand (% control) ([1]; 0.1 μM) | Binding of radioligand (% control) ([1]; 1 μM) | Binding of radioligand (% control) ([1]; 10 μM) | Binding of radioligand (% control) ([1]; 100 μM) | Effect on binding of the radioligand (in words) [1] | Binding (% control) (isolated bovine tubulin) | Inhibition of brain tubulin polymerization (brain tubulin) | Inhibition of plant tubulin polymerization (plant tubulin)
CCC(C)(NC(=O)c1cc(Cl)c(N)c(C=NOC)c1)C(=O)CCl (stereo not shown) [Compound 2, 4-amino-3-chloro-5-methoxyiminomethyl-N-(3-chloro-1-ethyl-1-methyl-2-oxopropyl)benzamide] | 140 to 141 | bind more effectively to tubulin |  |  |  |  |  |  |  | 
COC(=O)Nc1nc2ccc(C(=O)c3cccs3)cc2[nH]1 [Nocodazole, nocodazole] |  |  | 102 | 99 | 74 | 44 | reduced binding of the radioligand | 31.3 |  | 
COc1cc([C@@H]2c3cc4c(cc3[C@H](O)[C@H]3COC(=O)[C@H]23)OCO4)cc(OC)c1OC [Podophyllotoxin, podophyllotoxin] |  |  | 37 | 0 | 0 | 0 | reduced binding of the radioligand | 21.7 |  | 
CC[C@]1(O)C[C@@H]2CN(CCc3c([nH]c4ccccc34)[C@@](C(=O)OC)(c3cc4c(cc3OC)N(C)[C@H]3[C@@](O)(C(=O)OC)[C@H](OC(C)=O)[C@]5(CC)C=CCN6CC[C@]43[C@@H]65)C2)C1 [Vinblastine, vinblastine] |  |  | 155 | 218 | 286 | 323 | increased binding of the radioligand | 90.7 |  | 
COP(=S)(NC(C)C)Oc1ccc(C)cc1[N+](=O)[O-] (stereo not shown) [amiprophosmethyl] |  |  |  |  |  |  |  |  | not brain tubulin | inhibit the polymerization of plant tubulin
